Test system: rat brain Aβ
Assay: Rat brain Aβ peptides after oral dose (4-plex immunoassay and Aβ1-x)
Assay type: in vivo
Settings: 24 hours
Description: IC50 determinations for Aβ1-42 and Aβ1-40 in H4-APPsw cultures in 384-well format were determined using homogeneous time-resolved fluorescence immunoassays as previously described. The principle of these assays is illustrated in Figures 1(c) and 1(d). In other experiments using H4-APPsw cultures, Aβ was quantified by ELISA; for Aβ1-42 the combination of monoclonal antibodies was 26D6 and 565-HRP; for Aβ1-40 it was TSD and 26D6-HRP, and for Aβ1-x it was 4G8 and 26D6-HRP. In some experiments a novel 4-plex Aβ electrochemiluminescence immunoassay was used (Mesoscale Discovery catalog number N45ZA-1). Briefly, the 4-plex was carried out in 96-well format, with 4 separate spots of capture antibodies in each well. The 96-well plates were prepared by the manufacturer, with spots of monoclonal antibodies for Aβ1-42, Aβ1-40, and Aβ1-38, and an additional fourth spot of streptavidin in each well. Plates were initially incubated with blocking buffer (5% BSA in phosphate buffered saline, 200 μL per well) for 2 hours at ambient temperature and then with D2A6H-biotin conjugate (50 ng/mL in 1% BSA, phosphate buffered saline, 25 μL per well) for 1 hour. Plates were then rinsed with phosphate buffered saline before addition of experimental samples for determination of Aβ1-42, Aβ1-40, Aβ1-38, and Aβ1-37 levels, following the manufacturer's instructions as for the Aβ 3-plex kit (catalog number K15148E-1). Rat brain extracts for use in the 4-plex assay were made in 0.2% diethylamine, as previously described. For detection of rat Aβ peptides in the 4-plex (Figure 5), 252Q6-sulfo-tag conjugate was used, and for detection of human Aβ peptides from cell cultures 6E10-sulfo-tag conjugate was used. For Aβ in transiently transfected PS1/PS2 dKO fibroblasts, Aβ1-42 was quantified using an ELISA kit (WACO), and Aβ1-40 was quantified by ELISA as described above for H4-APPsw cultures. For triple transgenic mice (3xTg; [63]), human transgenic Aβ1-42 was assayed in brain homogenates using an ELISA kit (WACO). For the rat and mouse experiments illustrated in Figures 7 and 8, brain samples were prepared by solid phase extraction, and endogenous rat brain Aβ1-42 and Aβ1-40 were quantified by ELISA as previously described for wild type mice. For brain extracts made using solid phase extraction, calibration of Aβ was relative, based on the approximately linear response of the assay in the range tested. For brain extracts made in 0.2% diethylamine, Aβ1-42, Aβ1-40, Aβ1-38, and Aβ1-37 concentrations in brain and cell culture samples were determined by fitting the results of immunoassays against calibration curves derived from a range of dilutions of the corresponding synthetic peptides on each assay plate using a quadratic curve fit (Graphpad Prizm 5.0). Aβ1-x was calibrated in the same way against synthetic Aβ1-40 peptide. Results were expressed in units of pM, corrected for sample dilution.
Rats were given oral doses of BMS-869780, and levels of brain Aβ, βCTF, and αCTF were determined 24 hours later. For comparison, BMS-698861 was dosed in a separate experiment and samples were taken 5 hours later. […] (c) Rat brain βCTF was detected by western blotting of immunoprecipitates from samples of the same rat brains used for Aβ determinations. […] (e) and (f) quantification of western blots shown in (c) and (d), respectively, expressed relative to percent of average level of CTF in vehicle-treated rats. […]

`COc1cc(Nc2nc3n(n2)CCCC[C@H]3c2ccc(F)cc2)ccc1-n1cnc(Cl)c1` [BMS-869780] was tested, and the “rat brain Aβ1-37 and Aβ1-38” value (oral doses 1.9-235 mg/kg) was “increased”, the “rat brain Aβ1-40 and Aβ1-42” value (oral doses 1.9-235 mg/kg) was “decreased” and the “rat brain Aβ1-x” value (oral doses) was “no significant decrease”. The “sum total of brain Aβ1-40, Aβ1-42, Aβ1-38 and Aβ1-37” value (oral doses) was “no significant change in overall Aβ levels”.

From PMC4109680, “Identification and Preclinical Pharmacology of the γ-Secretase Modulator BMS-869780” (International Journal of Alzheimer's Disease, 2014)
